{"source": "ChEMBL document CHEMBL1671673", "about": "“In vitro activity of colistin (polymyxin E) against 3,480 isolates of gram-negative bacilli obtained from patients in Canadian hospitals in the CANWARD study, 2007-2008” (Antimicrob Agents Chemother, 2009)", "format_in_all_cases": "functional, organism-based", "design_in_all_cases": "scale not given: the % may be the effect or the level left", "key": {"[1]": {"system": "Pseudomonas aeruginosa", "assay": "Antibacterial activity against MDR Pseudomonas aeruginosa assessed as susceptible isolates at minimum inhibitory concentration of 1 ug/ml by CLSI broth microdilution method"}, "[2]": {"system": "Pseudomonas aeruginosa", "assay": "Antibacterial activity against Piperacillin-resistant Pseudomonas aeruginosa assessed as susceptible isolates at minimum inhibitory concentration of 0.5 ug/ml by CLSI broth microdilution method"}, "[3]": {"system": "Acinetobacter baumannii", "assay": "Antibacterial activity against Acinetobacter baumannii assessed as susceptible isolates at minimum inhibitory concentration of 0.12 ug/ml by CLSI broth microdilution method"}, "[4]": {"system": "Klebsiella oxytoca", "assay": "Antibacterial activity against Klebsiella oxytoca assessed as susceptible isolates at minimum inhibitory concentration of 1 ug/ml by CLSI broth microdilution method"}, "[5]": {"system": "Escherichia coli", "assay": "Antibacterial activity against ESBL-producing Escherichia coli assessed as susceptible isolates at minimum inhibitory concentration of >16 ug/ml by CLSI broth microdilution method"}, "[6]": {"system": "Acinetobacter baumannii", "assay": "Antibacterial activity against Acinetobacter baumannii assessed as susceptible isolates at minimum inhibitory concentration of 16 ug/ml by CLSI broth microdilution method"}, "[7]": {"system": "Klebsiella oxytoca", "assay": "Antibacterial activity against Klebsiella oxytoca assessed as susceptible isolates at minimum inhibitory concentration of 0.5 ug/ml by CLSI broth microdilution method"}, "[8]": {"system": "Klebsiella pneumoniae", "assay": "Antibacterial activity against ESBL-producing Klebsiella pneumoniae assessed as susceptible isolates at minimum inhibitory concentration of 2 ug/ml by CLSI broth microdilution method"}, "[9]": {"system": "Pseudomonas aeruginosa", "assay": "Antibacterial activity against Pseudomonas aeruginosa assessed as susceptible isolates at minimum inhibitory concentration of 1 ug/ml by CLSI broth microdilution method"}, "[10]": {"system": "Klebsiella oxytoca", "assay": "Antibacterial activity against Klebsiella oxytoca assessed as susceptible isolates at minimum inhibitory concentration of 2 ug/ml by CLSI broth microdilution method"}, "[11]": {"system": "Pseudomonas aeruginosa", "assay": "Antibacterial activity against tazobactam-resistant Pseudomonas aeruginosa assessed as susceptible isolates at minimum inhibitory concentration of 1 ug/ml by CLSI broth microdilution method"}, "[12]": {"system": "Pseudomonas aeruginosa", "assay": "Antibacterial activity against Gentamicin-resistant Pseudomonas aeruginosa assessed as susceptible isolates at minimum inhibitory concentration of 1 ug/ml by CLSI broth microdilution method"}, "[13]": {"system": "Pseudomonas aeruginosa", "assay": "Antibacterial activity against Meropenem-resistant Pseudomonas aeruginosa assessed as susceptible isolates at minimum inhibitory concentration of 2 ug/ml by CLSI broth microdilution method"}, "[14]": {"system": "Acinetobacter baumannii", "assay": "Antibacterial activity against Acinetobacter baumannii assessed as susceptible isolates at minimum inhibitory concentration of 2 ug/ml by CLSI broth microdilution method"}, "[15]": {"system": "Acinetobacter baumannii", "assay": "Antibacterial activity against Acinetobacter baumannii assessed as susceptible isolates at minimum inhibitory concentration of 0.25 ug/ml by CLSI broth microdilution method"}, "[16]": {"system": "Proteus mirabilis", "assay": "Antibacterial activity against Proteus mirabilis assessed as susceptible isolates at minimum inhibitory concentration of >16 ug/ml by CLSI broth microdilution method"}, "[17]": {"system": "Pseudomonas aeruginosa", "assay": "Antibacterial activity against Levofloxacin-resistant Pseudomonas aeruginosa assessed as susceptible isolates at minimum inhibitory concentration of 1 ug/ml by CLSI broth microdilution method"}, "[18]": {"system": "Klebsiella pneumoniae", "assay": "Antibacterial activity against ESBL-producing Klebsiella pneumoniae assessed as susceptible isolates at minimum inhibitory concentration of 16 ug/ml by CLSI broth microdilution method"}, "[19]": {"system": "Pseudomonas aeruginosa", "assay": "Antibacterial activity against MDR4 Pseudomonas aeruginosa assessed as susceptible isolates at minimum inhibitory concentration of 0.5 ug/ml by CLSI broth microdilution method"}, "[20]": {"system": "Pseudomonas aeruginosa", "assay": "Antibacterial activity against Amikacin-resistant Pseudomonas aeruginosa assessed as susceptible isolates at minimum inhibitory concentration of 1 ug/ml by CLSI broth microdilution method"}, "[21]": {"system": "Acinetobacter baumannii", "assay": "Antibacterial activity against Acinetobacter baumannii assessed as susceptible isolates at minimum inhibitory concentration of 1 ug/ml by CLSI broth microdilution method"}, "[22]": {"system": "Pseudomonas aeruginosa", "assay": "Antibacterial activity against MDR4 Pseudomonas aeruginosa assessed as susceptible isolates at minimum inhibitory concentration of 1 ug/ml by CLSI broth microdilution method"}, "[23]": {"system": "Enterobacter cloacae", "assay": "Antibacterial activity against Enterobacter cloacae assessed as susceptible isolates at minimum inhibitory concentration of 2 ug/ml by CLSI broth microdilution method"}, "[24]": {"system": "Escherichia coli", "assay": "Antibacterial activity against ESBL-producing Escherichia coli assessed as susceptible isolates at minimum inhibitory concentration of 8 ug/ml by CLSI broth microdilution method"}, "[25]": {"system": "Serratia marcescens", "assay": "Antibacterial activity against Serratia marcescens assessed as susceptible isolates at minimum inhibitory concentration of 2 ug/ml by CLSI broth microdilution method"}, "[26]": {"system": "Klebsiella aerogenes", "assay": "Antibacterial activity against Enterobacter aerogenes assessed as susceptible isolates at minimum inhibitory concentration of 1 ug/ml by CLSI broth microdilution method"}, "[27]": {"system": "Proteus mirabilis", "assay": "Antibacterial activity against Proteus mirabilis assessed as susceptible isolates at minimum inhibitory concentration of 4 ug/ml by CLSI broth microdilution method"}, "[28]": {"system": "Stenotrophomonas maltophilia", "assay": "Antibacterial activity against Stenotrophomonas maltophilia assessed as susceptible isolates at minimum inhibitory concentration of 1 ug/ml by CLSI broth microdilution method"}, "[29]": {"system": "Pseudomonas aeruginosa", "assay": "Antibacterial activity against Pseudomonas aeruginosa assessed as susceptible isolates at minimum inhibitory concentration of 4 ug/ml by CLSI broth microdilution method"}, "[30]": {"system": "Pseudomonas aeruginosa", "assay": "Antibacterial activity against Pseudomonas aeruginosa assessed as susceptible isolates at minimum inhibitory concentration of >16 ug/ml by CLSI broth microdilution method"}, "[31]": {"system": "Proteus mirabilis", "assay": "Antibacterial activity against Proteus mirabilis assessed as susceptible isolates at minimum inhibitory concentration of 1 ug/ml by CLSI broth microdilution method"}, "[32]": {"system": "Klebsiella aerogenes", "assay": "Antibacterial activity against Enterobacter aerogenes assessed as susceptible isolates at minimum inhibitory concentration of 2 ug/ml by CLSI broth microdilution method"}, "[33]": {"system": "Pseudomonas aeruginosa", "assay": "Antibacterial activity against Ciprofloxacin-resistant Pseudomonas aeruginosa assessed as susceptible isolates at minimum inhibitory concentration of 1 ug/ml by CLSI broth microdilution method"}, "[34]": {"system": "Klebsiella pneumoniae", "assay": "Antibacterial activity against ESBL-producing Klebsiella pneumoniae assessed as susceptible isolates at minimum inhibitory concentration of 0.5 ug/ml by CLSI broth microdilution method"}, "[35]": {"system": "Serratia marcescens", "assay": "Antibacterial activity against Serratia marcescens assessed as susceptible isolates at minimum inhibitory concentration of 1 ug/ml by CLSI broth microdilution method"}, "[36]": {"system": "Proteus mirabilis", "assay": "Antibacterial activity against Proteus mirabilis assessed as susceptible isolates at minimum inhibitory concentration of <=0.06 ug/ml by CLSI broth microdilution method"}, "[37]": {"system": "Serratia marcescens", "assay": "Antibacterial activity against Serratia marcescens assessed as susceptible isolates at minimum inhibitory concentration of >16 ug/ml by CLSI broth microdilution method"}, "[38]": {"system": "Acinetobacter baumannii", "assay": "Antibacterial activity against Acinetobacter baumannii assessed as susceptible isolates at minimum inhibitory concentration of <=0.06 ug/ml by CLSI broth microdilution method"}, "[39]": {"system": "Enterobacter cloacae", "assay": "Antibacterial activity against Enterobacter cloacae assessed as susceptible isolates at minimum inhibitory concentration of 0.25 ug/ml by CLSI broth microdilution method"}, "[40]": {"system": "Pseudomonas aeruginosa", "assay": "Antibacterial activity against Levofloxacin-resistant Pseudomonas aeruginosa assessed as susceptible isolates at minimum inhibitory concentration of 4 ug/ml by CLSI broth microdilution method"}}, "data": [{"sequence": "COLISTIN", "values": [{"measurement": "Activity", "setting": "[1]", "value": 38.2, "unit": "%"}, {"measurement": "Activity", "setting": "[2]", "value": 1.8, "unit": "%"}, {"measurement": "Activity", "setting": "[3]", "value": 0, "unit": "%"}, {"measurement": "Activity", "setting": "[4]", "value": 91.7, "unit": "%"}, {"measurement": "Activity", "setting": "[5]", "value": 100, "unit": "%"}, {"measurement": "Activity", "setting": "[6]", "value": 96.8, "unit": "%"}, {"measurement": "Activity", "setting": "[7]", "value": 74.1, "unit": "%"}, {"measurement": "Activity", "setting": "[8]", "value": 97.1, "unit": "%"}, {"measurement": "Activity", "setting": "[9]", "value": 29.1, "unit": "%"}, {"measurement": "Activity", "setting": "[10]", "value": 95.4, "unit": "%"}, {"measurement": "Activity", "setting": "[11]", "value": 37.5, "unit": "%"}, {"measurement": "Activity", "setting": "[12]", "value": 35.6, "unit": "%"}, {"measurement": "Activity", "setting": "[13]", "value": 98.2, "unit": "%"}, {"measurement": "Activity", "setting": "[14]", "value": 93.5, "unit": "%"}, {"measurement": "Activity", "setting": "[15]", "value": 0, "unit": "%"}, {"measurement": "Activity", "setting": "[16]", "value": 100, "unit": "%"}, {"measurement": "Activity", "setting": "[17]", "value": 30.7, "unit": "%"}, {"measurement": "Activity", "setting": "[18]", "value": 98.1, "unit": "%"}, {"measurement": "Activity", "setting": "[19]", "value": 7.7, "unit": "%"}, {"measurement": "Activity", "setting": "[20]", "value": 42.1, "unit": "%"}, {"measurement": "Activity", "setting": "[21]", "value": 74.2, "unit": "%"}, {"measurement": "Activity", "setting": "[22]", "value": 42.3, "unit": "%"}, {"measurement": "Activity", "setting": "[23]", "value": 83.9, "unit": "%"}, {"measurement": "Activity", "setting": "[24]", "value": 99.5, "unit": "%"}, {"measurement": "Activity", "setting": "[25]", "value": 1.9, "unit": "%"}, {"measurement": "Activity", "setting": "[26]", "value": 97.3, "unit": "%"}, {"measurement": "Activity", "setting": "[27]", "value": 0, "unit": "%"}, {"measurement": "Activity", "setting": "[28]", "value": 10.8, "unit": "%"}, {"measurement": "Activity", "setting": "[29]", "value": 98.9, "unit": "%"}, {"measurement": "Activity", "setting": "[30]", "value": 100, "unit": "%"}, {"measurement": "Activity", "setting": "[31]", "value": 0, "unit": "%"}, {"measurement": "Activity", "setting": "[32]", "value": 97.3, "unit": "%"}, {"measurement": "Activity", "setting": "[33]", "value": 31.3, "unit": "%"}, {"measurement": "Activity", "setting": "[34]", "value": 77.9, "unit": "%"}, {"measurement": "Activity", "setting": "[35]", "value": 1.9, "unit": "%"}, {"measurement": "Activity", "setting": "[36]", "value": 0, "unit": "%"}, {"measurement": "Activity", "setting": "[37]", "value": 100, "unit": "%"}, {"measurement": "Activity", "setting": "[38]", "value": 0, "unit": "%"}, {"measurement": "Activity", "setting": "[39]", "value": 14, "unit": "%"}, {"measurement": "Activity", "setting": "[40]", "value": 98.2, "unit": "%"}]}]}
